One assay deals with LoVo-OXP cells. The assay is described as follows: Cellular platinum uptake by GF-AAS. It is filed as cell-based, human. The note with it: LoVo-OXP resistant cells, 5 μM, 6, 24, 48 h, FIG. 2 panel B, compared with LoVo. How it is done: LoVo and LoVo-OXP cells (2×10^6) were seeded in 75 cm^2 flasks in growth medium (20 ml). After 24 h, the medium was replaced and the cells incubated for different times (6, 24 or 48 h) in the presence of the tested complexes. Cell monolayers were washed twice with cold PBS and harvested. Samples were subjected to three freezing/thawing cycles at −80° C., and then vigorously vortexed. Aliquots were removed for the determination of protein content by the BioRad protein assay (BioRad). The samples were treated with 1 mL of highly pure nitric acid (Pt: ≦0.01 μg×kg^−1, TraceSELECT® Ultra, Sigma Chemical Co.) and transferred into a microwave teflon vessel. Subsequently, samples were submitted to a standard procedure using a speed wave MWS-3 Berghof instrument (Eningen, Germany). After cooling, each mineralized sample was analyzed for platinum by using a Varian AA Duo graphite furnace atomic absorption spectrometer (Varian, Palo Alto, Calif.; USA) at the wavelength of […]. The calibration curve was obtained using known concentrations of standard solutions purchased from Sigma Chemical Co.
It is well-known that cellular uptake is an important factor influencing drug efficacy. […] The intracellular platinum was quantified by means of GF-AAS analysis and the results, expressed as μg metal mg^−1 of cellular proteins, are summarized in FIG. 2.

Assay [1] deals with LoVo colorectal adenocarcinoma xenografts. The assay is described as follows: In vivo anticancer activity, oxaliplatin-sensitive colorectal xenograft. More on the design: species or system BALB/c nu/nu mice. The note with it: LoVo xenograft; daily ip day 14 to day 30; 1 at 3 mg/kg, OXP at 2 mg/kg; tumor volume at day 30. How it is done: (§1) LoVo and LoVo-OXP tumor xenografts were established in 6-week-old BALB/c nu/nu mice by injecting 1×10^7 tumor cells subcutaneously (100 μL in serum free medium) on the left dorsal flank. After 24 h from tumor implantation, mice were randomly divided into five groups (6 animals per group, 8 controls). Chemotherapy was delayed until the tumor became palpable (day 14). From day 14, 1 was dosed daily at 3 mg/kg ip whereas OXP was dosed daily at 2 mg/kg ip. Measurements of body weights and tumor volumes were recorded every 2 days until the experimental endpoint. The long axis (L) and the short axis (S) were measured with caliper, and the tumor volume (V) was calculated using the following equation: V=S×S×L/2. At day 30, animals were sacrificed, and the inhibition of tumor growth was determined by comparing the volume of the control group and the treatment group expressed as % referred to the control animals.
(§2) All the values are the means±S.D. of not less than three measurements. Multiple comparisons were made by Tukey-Kramer test (**p<0.01; *p<0.05).

The test system of assay [2] is LoVo-OXP colorectal adenocarcinoma xenografts. The assay is described as follows: In vivo anticancer activity, oxaliplatin-resistant colorectal xenograft. Set-up: species or system BALB/c nu/nu mice. How it is done:
as §1, §2

“Also recorded” adds a separate entry of the source.

On to `O=C1[O][Pt-2]2([NH2+]C3CCCC[C@H]3[NH2+]2)[O]C1=O` (stereo partly drawn) [oxaliplatin, [(1R,2R)-cyclohexane-1,2diamine](ethanedioato)platinum(II), reference compound], for which, in the assay on LoVo-OXP cells, the intracellular platinum accumulation result is “remarkably decreased; also recorded: decreases remarkably”. The tumor growth inhibition turned out to be 54% in assay [1] and 24% in assay [2] (LoVo-OXP xenograft, daily ip day 14 to day 30, 1 at 3 mg/kg, OXP at 2 mg/kg, tumor volume at day 30). Moreover, the “antitumor activity, times lower than that exerted by 1” value in assay [2] (LoVo-OXP models) was determined as 2.4.

For the origin of these results see patent publication US9220705B2, “Method of treating colorectal cancer” (priority 2013, dated 2015).
